Data as given in article PMC7750190, “GapB Is Involved in Biofilm Formation Dependent on LrgAB but Not the SinI/R System in Bacillus cereus 0-9” (Frontiers in Microbiology, 2020).

Biological target: T1, GapB (Bacillus cereus, UniProt Q817G8)
T1 construct: gene BC_4583; full gapB gene in pET28a, GapB-His6, E. coli BL21 (DE3), Ni-IMAC and Superdex 200, 42 kDa by SDS-PAGE
Experiment: NAD(P)H production at […] nm
Assay type: biochemical
Conditions: 20 mM glyceraldehyde-3-phosphate, 50 mM Na2HPO4, 5 mM EDTA, pH 7.5, 37°C, 30 min

T1 sequence (Q817G8 entry or part of it): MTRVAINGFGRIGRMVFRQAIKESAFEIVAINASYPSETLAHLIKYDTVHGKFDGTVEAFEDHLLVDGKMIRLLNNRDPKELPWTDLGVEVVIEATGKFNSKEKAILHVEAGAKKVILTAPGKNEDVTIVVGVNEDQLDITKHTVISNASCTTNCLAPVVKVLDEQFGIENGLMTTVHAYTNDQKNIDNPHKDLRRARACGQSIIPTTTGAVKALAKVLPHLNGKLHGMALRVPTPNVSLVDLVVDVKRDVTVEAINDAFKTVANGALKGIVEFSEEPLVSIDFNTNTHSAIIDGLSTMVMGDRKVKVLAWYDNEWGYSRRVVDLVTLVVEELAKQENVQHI

With `NC(=O)c1ccc[n+]([C@@H]2O[C@H](COP(=O)(O)OP(=O)(O)OC[C@H]3O[C@@H](n4cnc5c(N)ncnc54)[C@H](OP(=O)(O)O)[C@@H]3O)[C@@H](O)[C@H]2O)c1` [NADP^+] the “NAD(P)H production at 340 nm” value (2 mM NADP+) was “GapB protein has enzyme activities with either NAD^+ or NADP^+ as a cofactor”.

With `NC(=O)c1ccc[n+]([C@@H]2O[C@H](COP(=O)(O)OP(=O)(O)OC[C@H]3O[C@@H](n4cnc5c(N)ncnc54)[C@H](O)[C@@H]3O)[C@@H](O)[C@H]2O)c1` [NAD^+] the “NAD(P)H production at 340 nm” value (10 mM NAD+) was “GapB protein has enzyme activities with either NAD^+ or NADP^+ as a cofactor”.
